Assay results taken from patent US20030203969A1, “Pharmaceutically active aromatic guanylhydrazones” (priority 2000, published 2003).

Legend:
[1] = tested on: T-cell-tropic HIV-1NL4/3 strain; experiment: Inhibition of T-cell-tropic HIV-1 NL4/3 replication in de novo infected Jurkat cells (p24 antigen); assay type: cell-based
Method: (§1) HIV replication was measured either by p24 HIV Antigen Capture Assay Kit (ELISA; HIVAG-1 Monoclonal kit BIA011; Abbott) following the manufacturer's recommendation, or by using the Quantiplex HIV-1 RNA 3.0 Assay (bDNA) system (Chiron Diagnostics). The latter assay is a signal amplification nucleic acid probe assay (employing a sandwich nucleic acid hybridization procedure) for direct quantitation of HIV RNA in human plasma. There, in brief, HIV-1 is first concentrated from plasma by centrifugation. After release of genomic HIV-1 RNA from the virions, the RNA is captured to a microwell by a set of specific, synthetic oligonucleotide capture probes. A set of target probes hybridize to both the viral RNA and the pre-amplifier probes. The capture probes, comprised of 17 individual capture extenders, and the target probes, comprised of 81 individual target extenders, bind to different regions of the pol gene of the viral RNA. The amplifier probe hybridizes to the pre-amplifier forming a branched DNA (bDNA) complex. Then, multiple copies of an alkaline phosphatase labeled probe are hybridized to this immobilized bDNA complex. Detection is achieved by incubating the entire complex with a chemoluminescent substrate. Light emission is directly proportional to the amount of HIV-1 RNA present in each sample, and results are recorded as relative light units by an appropriate analyzer.
(§2) Jurkat cells (species: human T-cell leukemia; special characteristics: cells are permissive for growth of T-cell tropic HIV strains; source:ATCC Cat.No. TIB 152) or PM1 cells (species: clonal derivative of human HUT 78 cells; special characteristics: cells are permissive for growth of macrophage-tropic and T-cell tropic HIV strains; source: Dr. Marvin Reitz, courtesy of the NIH AIDS Research and Reference Reagent Program Cat.No. 3038) were stimulated with Phytohemagglutinin (PHA-P, Product No. L9132 from Sigma) in a concentration of 2 μg/ml (1.5×10^6 cells/ml) and Hexadimethrine Bromide (Polybrene, Product No. H9268 from Sigma) in a concentration of 2 μg/ml (1.5×10^6 cells/ml) in RPMI 1640 medium containing 10% fetal calf serum (FCS, Pansystems GmbH) and antibiotics for 3 days.
(§3) For HIV-1 infection, 5×10^7 cells were resuspended in 500 μl culture medium without test drugs and incubated in a 50 ml blue-cap-tube at 37° C. for 5 hrs with HIV-1 high titer viral stocks. Jurkat cells were infected with the T-cell tropic strain HIV-1 NL4-3, PM1 cells with the macrophage tropic strain HIV-1 Ba-L (both from the NIH AIDS Research and Reference Reagent Program). After infection, cells were washed twice with PBS without Ca^2+ and Mg^2+ to avoid false positive p24 antigen determination. Cells were resuspended, and identical aliquots (1×10^6/ml) of infected cells were further cultured in 10 ml medium with test drugs at various concentrations, or in medium with DMSO as control for calculation of the inhibition of virus replication (in %].
(§4) Culture medium was changed and cells were split at days 3 and 7 of the experiments. Viability of the cells (Trypan-blue staining), cell counts and p24 antigen levels were determined at days 3, 7 and 10 of the experiments. No significant differences in cell viability were observed (˜85-90% living cells).
(§5) At day 10 of infection, the HIV strains replicated vigorously in untreated cultures. Numbers describe percent inhibition of HIV replication as compared to control experiments.

[2] = target: T1, deoxyhypusine synthase (DHS) (Homo sapiens, UniProt P49366); experiment: In vitro DHS screening assay (hypusine formation on eIF-5A); assay type: biochemical
T1 construct: made in house; host or cells: E. coli BL21 (DE3), pGex vector
T1 sequence (P49366 1-369): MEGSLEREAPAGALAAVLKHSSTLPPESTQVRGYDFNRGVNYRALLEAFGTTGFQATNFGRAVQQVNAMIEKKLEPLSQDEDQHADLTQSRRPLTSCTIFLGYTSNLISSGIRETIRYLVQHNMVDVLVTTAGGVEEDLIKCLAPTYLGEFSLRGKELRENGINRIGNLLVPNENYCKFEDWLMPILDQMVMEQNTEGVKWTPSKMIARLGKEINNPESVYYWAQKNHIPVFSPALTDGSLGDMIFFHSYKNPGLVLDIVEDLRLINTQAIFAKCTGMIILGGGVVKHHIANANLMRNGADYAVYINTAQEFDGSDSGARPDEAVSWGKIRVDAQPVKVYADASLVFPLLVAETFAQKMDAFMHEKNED

[3] = tested on: macrophage-tropic HIV-1Ba-L strain; experiment: Inhibition of macrophage-tropic HIV-1 Ba-L replication in de novo infected PM1 cells (p24 antigen); assay type: cell-based
Method: as §1, §2, §3, §4, §5

E. Coli XL-1 blue strain = experiment: Growth assay for E. coli (optical density at 610 nm); assay type: cell-based; conditions: LB medium, 37° C., one day; read-out: IC50 (μM) E. coli proliferation
Method: We used the E. Coli XL-1 blue strain (Stratagene) for the investigation of antibacterial activity. During this experiments LB medium was used for E. coil growth. LB was prepared as follows: 1% trypton (weight/volume), 0.5% Yeast extract (weight/volume), and 1.5% NaCl (weight/volume) were dissolved in water and autoclaved. The media contained the inhibitor at 100 μM, 10 μM, or 1 μM concentrations, respectively.
The assay was performed as follows: bacteria were seeded to 96-well plates containing the respective inhibitors. The bacteria-containing plates were incubated at 37° C. for one day. After incubation time, E. coli growth was assayed by the measurement of the optical density at 610 nm wavelength.

SMILES: C/C(=N\N=C(N)N)c1ccc(NC(=O)Nc2cc(/C(C)=N/N=C(N)N)cc(/C(C)=N/N=C(N)N)c2)cc1 [Compound 1, N-(4-acetylphenyl)-N′-(3,5-diacetylphenyl)urea tris (amidinohydrazone)]
- percent inhibition of HIV replication as compared to control ([1]; HIV-1 NL4/3, 1.0 μM, d7): 15%
- percent inhibition of HIV replication as compared to control ([1]; HIV-1 NL4/3, 1.0 μM, d10): 5%
- percent inhibition of HIV replication as compared to control ([1]; HIV-1 NL4/3, 5.0 μM, d7): 52%
- percent inhibition of HIV replication as compared to control ([1]; HIV-1 NL4/3, 5.0 μM, d10): 31%
- inhibition of the hypusine formation on the elF-5A protein [2]: potent inhibitors
- percent inhibition of HIV replication as compared to control ([3]; 1.0 μM, d7): 23%
- percent inhibition of HIV replication as compared to control ([3]; 1.0 μM, d10): 0%
- percent inhibition of HIV replication as compared to control ([3]; 5.0 μM, d7): 72%
- percent inhibition of HIV replication as compared to control ([3]; 5.0 μM, d10): 51%
- IC50 (E. Coli XL-1 blue strain): < 0.1 µM

SMILES: CC(=NNC(=N)N)c1cc(NC(=O)CCC(=O)Nc2cc(C(C)=NNC(=N)N)cc(C(C)=NNC(=N)N)c2)cc(C(C)=NNC(=N)N)c1 [Compound 5, N,N′-bis (3,5-diacetylphenyl) butane diamide tetrakis (amidinohydrazone)]
- percent inhibition of HIV replication as compared to control ([1]; HIV-1 NL4/3, 1.0 μM, d7): 26%
- percent inhibition of HIV replication as compared to control ([1]; HIV-1 NL4/3, 1.0 μM, d10): 0%
- percent inhibition of HIV replication as compared to control ([1]; HIV-1 NL4/3, 5.0 μM, d7): 70%
- percent inhibition of HIV replication as compared to control ([1]; HIV-1 NL4/3, 5.0 μM, d10): 16%
- inhibition of the hypusine formation on the elF-5A protein [2]: potent inhibitors
- percent inhibition of HIV replication as compared to control ([3]; 1.0 μM, d7): 48%
- percent inhibition of HIV replication as compared to control ([3]; 1.0 μM, d10): 35%
- percent inhibition of HIV replication as compared to control ([3]; 5.0 μM, d7): 97%
- percent inhibition of HIV replication as compared to control ([3]; 5.0 μM, d10): 86%
- IC50 (E. Coli XL-1 blue strain): < 0.1 µM
